Patent publication US6838096B2, “Black soybean polysaccharides” (Taipei Veterans General Hospital, priority 2001, dated 2005)

Key:
BALB/c mice = experiment: Myelopoietic activity in 5-FU-treated BALB/c mice with or without CT26 tumor implantation; type: in vivo; details: 5-FU 150 mg/kg i.p.
Protocol: BALB/c mice (6-10 weeks old, 20±5 g) were obtained and kept in specific pathogen-free conditions with a controlled temperature and humidity, under a 12-h light/dark cycle, and given free access to food and water. All experiments were performed in accordance with the guidelines provided in the NIH Guide for the Care and Use of Laboratory Animals (DHHS publication No. NIH 85-23, revised 1996). CT26 murine colon adenocarcinoma and BALB/c syngenic were maintained in RPMI 1640 medium (Life technology, Grand Island, N.Y.) supplemented with 10% heat-inactivated FCS (HyClone, Logan, Utah) and 2 mM L-glutamine (Sigma, St. Louis, Mo.), and cultured at 37° C. in a humidified atmosphere containing 5% CO2. These cells were subcutaneously implanted into left flank of BALB/c mice.
For non-tumor implanted experiments, 5-FU (150 mg/kg body weight) was intraperitoneally (i.p.) injected into BALB/c mice on day 0, and PSBS (100 or 400 mg/kg body weight) was given by oral or interperitoneal administration daily once for 5 consecutive days 6 h after 5-FU injection. Mice in control group received normal saline at the same time. While in tumor-implanted model, 1×10^6 CT26 tumor cells in PBS per mouse was s.c. injected in the left flank of mice. […]

number of leukocytes (BALB/c mice): significantly reduced
CFU-GM colony numbers (5-FU-treated mice; 5-FU alone, single dose 150 mg/kg i.p., day 11): 41±5 colonies
myelosuppression (5-FU-treated mice; mouse, in vivo, ip, 150 mg/kg): apparent myelosuppression
number of leukocytes (5-FU-treated mice; mouse, in vivo, ip, 150 mg/kg): significantly decreased
SMILES: O=c1[nH]cc(F)c(=O)[nH]1 [5-FU, 5-fluorouracil]
